From PMC7845594, “Novel Immune Modulators Enhance Caenorhabditis elegans Resistance to Multiple Pathogens” (mSphere, 2021)
“And” between values parts separate entries of the source, which are not always exact repeats. Equal values may be shown once.

How the values were obtained:
[1] = system: glp-4(bn2) worms exposed to methicillin-resistant S. aureus strain MRSA131; test: S. aureus infection assay (liquid); assay type: in vivo, Caenorhabditis elegans; details: for S. aureus EC: glp-4(bn2) worms, 96 h, ± 95% confidence interval
Protocol: (§1) Enterococcus faecalis and Staphylococcus aureus are Gram-positive bacterial species frequently responsible for nosocomial infections ([24], [25]). These bacterial species readily infect C. elegans and liquid-based pathogenesis models have been developed for each ([26][–][28]). Sterile, young adult glp-4(bn2) worms were incubated with either E. faecalis or S. aureus and various concentrations of the five compounds. […] Importantly, P. aeruginosa, E. faecalis, and S. aureus use very different mechanisms to kill C. elegans (pyoverdine-mediated mitochondrial damage, gelatinase-mediated damage to the colonized intestine, and multi-toxin-mediated intestinal effacement and damage, respectively) ([29][–][33]). The ability of these compounds to rescue against multiple pathogens that utilize a diverse set of virulence factors and mechanisms of pathogenesis further supports the idea that at least a portion of these compounds’ activity is mediated by stimulating innate immunity.
(§2) FIG 2 A subset of LK molecules rescue against E. faecalis and S. aureus. […] Compounds were serially diluted 2-fold, and young adult glp-4(bn2) worms were incubated with the pathogen for 80 h (E. faecalis) or 96 h (S. aureus). The concentrations shown are based on the mean value for at least three replicates. (B and C) Percentages of dead C. elegans after exposure to E. faecalis (B) or S. aureus (C). A representative biological replicate is shown. Each condition included at least six wells per replicate, each well contained approximately 20 worms. Three biological replicates were performed. *, P < 0.05; **, P < 0.01; ***, P < 0.001. P values were calculated using Student’s t test. Error bars represent the standard error of the mean.
The S. aureus killing assay was performed as previously described with some changes ([26]). A single colony was used to inoculate a 5-ml aerobic culture of TSB. The following day, 100 µl of this culture was used to inoculate a second 10 ml of TSB culture wrapped with parafilm. Then, 384-well plates were made containing 10% TSB, and S. aureus from the second culture was resuspended in S Basal medium to a final OD of 0.04. Compounds were then serially diluted in a DMSO-S Basal solution to achieve the desired concentration in the wells with a 1% DMSO final concentration for all compounds. After 5 days, the worms were transferred to new plates using a 0.05% Tween solution to prevent S. aureus biofilm background fluorescence from obscuring dead worms. Subsequent washing, staining, imaging, and image analysis were performed identically to Pseudomonas liquid killing. EC values were defined as the minimum concentration that provided statistically significant rescue. At least three biological replicates were performed.

[2] = system: glp-4(bn2) worms exposed to E. faecalis strain OG1RF; test: E. faecalis infection assay (liquid); assay type: in vivo, Caenorhabditis elegans; details: for E. faecalis EC: glp-4(bn2) worms, 80 h, ± 95% confidence interval
Protocol: as §1, §2
The E. faecalis infection assay was performed as previously described ([27]). A single colony was used to inoculate a 5 ml of BHI liquid culture. After 16 to 24 h, 400 µl of this culture was spread on a BHI agar plate and placed at 37°C for 24 h. Next, 384-well plates were made containing 10% BHI, and E. faecalis was removed from the plate by scraping and resuspended in S Basal medium to a final OD of 0.03. Compounds at the desired concentrations or DMSO (final concentration, 1%) were then added to each well. After 3 days, the worms were transferred to new plates using a 0.05% Tween solution to prevent background fluorescence from E. faecalis biofilm. Subsequent washing, staining, imaging, and image analysis was performed identically to Pseudomonas liquid killing. EC values were defined as the minimum concentration that provided statistically significant rescue. At least three biological replicates were performed.

| Compound | S. aureus EC [1] | E. faecalis EC [2] | Need of MDT-15 for rescue (mdt-15(RNAi)) ([1]; S. aureus, 32 µM) | Need of MDT-15 for rescue (mdt-15(RNAi)) ([2]; E. faecalis, 32 µM) |
| --- | --- | --- | --- | --- |
| COC(=O)/C=C/C(=O)Nc1ccccc1 [LK32] | > 64 µM | 8 µM and 8 ± 0.0 µM | – | – |
| O=c1cc(CNc2ccc(Br)cc2)nc2sccn12 [LK56] | 56 µM and 56 ± 12.8 µM | 10.7 µM and 10.7 ± 3.3 µM | required | required |
| CNC(=O)Oc1c(Br)cc2sc(=O)oc2c1Br [LK34] | 42.7 µM and 42.7 ± 11.4 µM | 18.7 µM and 18.7 ± 8.7 µM | – | – |
| CN(C)/N=N/c1ccc(-c2cn(Cc3ccccc3)cn2)cc1 [LK38] | > 64 µM | > 64 µM | – | – |
| CCN(CC)/N=N/c1ccc(C(=O)O)cc1 [LK35] | > 64 µM | > 64 µM | – | – |
